Columns and labels:
Glucocorticoid receptor [1] = molecular target: T1, Glucocorticoid receptor (Homo sapiens, UniProt P04150); experiment: Displacement of fluorescent-labelled Dexamethasone from glucocorticoid receptor
T1 sequence (P04150 whole entry): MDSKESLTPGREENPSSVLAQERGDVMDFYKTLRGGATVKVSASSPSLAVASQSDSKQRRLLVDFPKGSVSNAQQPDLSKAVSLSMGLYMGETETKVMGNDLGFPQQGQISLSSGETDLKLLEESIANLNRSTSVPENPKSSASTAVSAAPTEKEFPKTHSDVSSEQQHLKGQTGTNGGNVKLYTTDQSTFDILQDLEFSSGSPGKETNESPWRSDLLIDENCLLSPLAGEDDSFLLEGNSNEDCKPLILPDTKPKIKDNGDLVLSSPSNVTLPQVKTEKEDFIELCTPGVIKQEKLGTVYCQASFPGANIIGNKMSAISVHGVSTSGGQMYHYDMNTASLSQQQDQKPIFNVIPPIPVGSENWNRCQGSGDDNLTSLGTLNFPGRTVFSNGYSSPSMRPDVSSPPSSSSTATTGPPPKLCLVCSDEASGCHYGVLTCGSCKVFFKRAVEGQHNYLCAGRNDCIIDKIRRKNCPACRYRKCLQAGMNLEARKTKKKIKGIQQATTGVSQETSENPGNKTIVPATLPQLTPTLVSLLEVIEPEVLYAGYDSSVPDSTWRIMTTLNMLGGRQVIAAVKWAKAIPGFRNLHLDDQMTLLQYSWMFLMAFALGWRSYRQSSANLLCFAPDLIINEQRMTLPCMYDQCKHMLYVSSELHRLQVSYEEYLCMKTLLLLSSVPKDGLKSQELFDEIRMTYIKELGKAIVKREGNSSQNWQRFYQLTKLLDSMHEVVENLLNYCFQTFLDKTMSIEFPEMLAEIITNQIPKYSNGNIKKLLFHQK

Glucocorticoid receptor [2] = molecular target: T1, Glucocorticoid receptor; experiment: Agonist activity at glucocorticoid receptor in human A549 cells by NF-kappaB transrepression assay; format: functional, cell-based
Glucocorticoid receptor [3] = molecular target: T1, Glucocorticoid receptor; experiment: Agonist activity at GR in human A549 cells transfected with luciferase gene linked to MMTV promoter assessed as luciferase transactivation activity; format: functional, cell-based
[4] = Selectivity ratio of progesterone receptor to glucocorticoid receptor
[5] = Selectivity ratio of androgen receptor to glucocorticoid receptor

Row | SMILES | IC50 (Glucocorticoid receptor [1]) | IC50 (Glucocorticoid receptor [2]) | IC50 (Glucocorticoid receptor [3]) | Selectivity ratio [4] | Selectivity ratio [5]
1 | Cc1cc(C)c(S(=O)(=O)N[C@@H](C)CNc2cc(C)cc3c2cnn3-c2ccc(S(C)(=O)=O)cc2)c(C)c1 | 31.6 nM | 5.01 nM | 12.6 nM | 10 | > 100
2 | CCN(C[C@](O)(CNc1cccc2c1cnn2-c1ccc(F)cc1)C(F)(F)F)C(=O)c1c(Cl)cccc1Cl | 15.8 nM | 0.0794 nM | 0.316 nM |  | 
3 | Cc1cc(C)c(S(=O)(=O)N[C@@H](C)CNc2cc(C)cc3c2cnn3-c2ccc(C#N)cc2)c(C)c1 | 15.8 nM | 2 nM | 5.01 nM | 10 | > 100
4 | Cc1cc(C)c(S(=O)(=O)N[C@@H](C)CNc2cc(C)cc3c2cnn3-c2cccc(N3CCCC(CO)C3)c2)c(C)c1 (single isomer, unassigned; isomer 2) | 15.8 nM | 39.8 nM | 316 nM |  | 
5 | COc1ccc(-n2ncc3c(NC[C@H](C)NS(=O)(=O)c4c(C)cc(C)cc4C)cc(C)cc32)cc1 | 15.8 nM | 12.6 nM | 50.1 nM | 10 | > 100
6 | Cc1cc(C)c(S(=O)(=O)N[C@@H](C)CNc2cc(C)cc3c2cnn3-c2ccc(F)cc2)c(C)c1 | 15.8 nM | 1.26 nM | 3.98 nM | 10 | > 100
7 | CNc1ccc(-n2ncc3c(NC[C@H](C)NS(=O)(=O)c4c(C)cc(C)cc4C)cc(C)cc32)cc1 | 20 nM | 5.01 nM | 251 nM |  | 
8 | Cc1cc(C)c(S(=O)(=O)NC[C@@H](C)Nc2cc(C)cc3c2cnn3-c2ccc(F)cc2)c(C)c1 | 12.6 nM | 6.31 nM | 50.1 nM |  | 
9 | Cc1cc(C)c(S(=O)(=O)N[C@@H](C)CNc2cc(C)cc3c2cnn3-c2cccc(N3CCCC(CO)C3)c2)c(C)c1 (single isomer, unassigned; isomer 1) | 25.1 nM | 39.8 nM | 631 nM |  | 
10 | Cc1cc(C)c(S(=O)(=O)N[C@@H](C)CNc2cc(C)cc3c2cnn3-c2ccc(NC(C)C)cc2)c(C)c1 | 12.6 nM | 2 nM | 10 nM |  | 
11 | Cc1cc(C)c(S(=O)(=O)N[C@@H](C)CNc2cc(C)cc3c2cnn3-c2ccc(NCC(N)=O)cc2)c(C)c1 | 15.8 nM | 3.16 nM | 63.1 nM |  | 
12 | Cc1cc(C)c(S(=O)(=O)N[C@@H](C)CNc2cc(C)cc3c2cnn3-c2cccc(N3CCCC(CO)C3)c2)c(C)c1 (stereo in doubt; 14l) | 25.1 nM | 20 nM | 251 nM |  | 
13 | COc1cccc(-n2ncc3c(NC[C@H](C)NS(=O)(=O)c4c(C)cc(C)cc4C)cc(C)cc32)c1 |  | 50.1 nM | 200 nM | 10 | > 100

Results, then the compound that gave them:

Row | IC50 (Glucocorticoid receptor [1]) | IC50 (Glucocorticoid receptor [2]) | IC50 (Glucocorticoid receptor [3]) | Selectivity ratio [4] | Selectivity ratio [5] | SMILES
14 | 7.94 nM | 0.316 nM | 1.26 nM |  |  | Cc1cc(C)c(S(=O)(=O)N[C@@H](C)CNc2cc(C)cc3c2cnn3-c2cccc(NC3CC3)c2)c(C)c1
15 | 39.8 nM | 7.94 nM | 50.1 nM |  |  | Cc1cc(NC[C@H](C)NS(=O)(=O)C(C)C)c2cnn(-c3cccc(C(=O)NC(C)C)c3)c2c1
16 | 126 nM | 251 nM | > 6310 nM |  |  | Cc1cc(NC[C@H](C)NS(=O)(=O)C2CC2)c2cnn(-c3cccc(C(=O)N4CCCC(CO)C4)c3)c2c1 (some centres not stated)
17 | 15.8 nM | 0.2 nM | 2 nM |  |  | Cc1cc(C)c(S(=O)(=O)N[C@@H](C)CNc2cc(C)cc3c2cnn3-c2cccc(N[C@H](C)C(N)=O)c2)c(C)c1
18 | 126 nM | 200 nM | 2000 nM |  |  | Cc1cc(NC[C@H](C)NS(C)(=O)=O)c2cnn(-c3cccc(C(=O)NC(C)C)c3)c2c1
19 | 25.1 nM | 7.94 nM | 158 nM |  |  | Cc1cc(C)c(S(=O)(=O)N[C@@H](C)CNc2cc(C)cc3c2cnn3-c2ccc(N[C@H](C)C(N)=O)cc2)c(C)c1
20 | 31.6 nM | 2.51 nM | 50.1 nM |  |  | Cc1cc(NC[C@H](C)NS(=O)(=O)C2CC2)c2cnn(-c3cccc(C(=O)N(C)[C@H](C)C(N)=O)c3)c2c1
21 | 15.8 nM | 2 nM | 12.6 nM |  |  | Cc1cc(NC[C@H](C)NS(=O)(=O)C2CC2)c2cnn(-c3cccc(C(=O)NC(C)C)c3)c2c1
22 | 31.6 nM | 7.94 nM | 15.8 nM |  |  | Cc1cc(C)c(S(=O)(=O)N[C@@H](C)CNc2cc(C)cc3c2cnn3-c2ccc(N[C@@H](C)C(N)=O)cc2)c(C)c1
23 | 39.8 nM | 5.01 nM | 200 nM |  |  | Cc1cc(NC[C@H](C)NS(=O)(=O)C2CC2)c2cnn(-c3cccc(C(=O)N[C@@H](C)C(N)=O)c3)c2c1
24 | 12.6 nM | 0.251 nM | 2.51 nM |  |  | Cc1cc(C)c(S(=O)(=O)N[C@@H](C)CNc2cc(C)cc3c2cnn3-c2cccc(NCC(N)=O)c2)c(C)c1
25 | 7.94 nM | 5.01 nM | 200 nM |  |  | Cc1cc(NC[C@H](C)NS(=O)(=O)C2CC2)c2cnn(-c3cccc(C(=O)NCC(N)=O)c3)c2c1
26 | 6.31 nM | 0.126 nM | 0.501 nM |  |  | Cc1cc(C)c(S(=O)(=O)N[C@@H](C)CNc2cc(C)cc3c2cnn3-c2cccc(NC(C)C)c2)c(C)c1
27 | 7.94 nM | 1.26 nM | 7.94 nM |  |  | Cc1cc(C)c(S(=O)(=O)N[C@@H](C)CNc2cc(C)cc3c2cnn3-c2ccc(NC3CC3)cc2)c(C)c1
28 | 31.6 nM | 3.16 nM | 126 nM |  |  | Cc1cc(NC[C@H](C)NS(=O)(=O)C2CC2)c2cnn(-c3cccc(C(=O)N[C@H](C)C(N)=O)c3)c2c1
29 | 158 nM | 794 nM | 3980 nM |  |  | Cc1cc(NC[C@H](C)NS(=O)(=O)C2CC2)c2cnn(-c3cccc(C(=O)N4CCC[C@H]4C(N)=O)c3)c2c1
30 | 5.01 nM | 0.501 nM | 1.58 nM |  |  | Cc1cc(C)c(S(=O)(=O)N[C@@H](C)CNc2cc(C)cc3c2cnn3-c2cccc(N[C@@H](C)C(N)=O)c2)c(C)c1
31 | 12.6 nM | 20 nM | 79.4 nM |  |  | CCCS(=O)(=O)N[C@@H](C)CNc1cc(C)cc2c1cnn2-c1cccc(C(=O)NC(C)C)c1
32 | 15.8 nM | 7.94 nM | 25.1 nM | 10 | > 100 | Cc1cc(C)c(S(=O)(=O)N[C@@H](C)CNc2cc(C)cc3c2cnn3-c2cccc(F)c2)c(C)c1

Source: ChEMBL document CHEMBL1667843, “Discovery of a potent series of non-steroidal non α-trifluoromethyl carbinol glucocorticoid receptor agonists with reduced lipophilicity” (Bioorg Med Chem Lett, 2011)
